Article PMC5015106 (Scientific Reports, 2016)
In brackets after ≈: the same amount, converted by molar mass. Like-named read-outs stand apart in the source and are kept apart here. Numbered stars: 1 amine (or outer) side, 2 acyl side, 3 side chain; on linkers, the order of the positions; unused ones are H or OH. Bridge positions count the residues as written; N and C are the ends. Square brackets hold non-standard residues; d marks the D form. Peptide text beside a SMILES is read from it. ξ: configuration not given here. X1 = O=C([C@H](CCc1ccc(O)c(Cl)c1)N[*:1])[*:2]; NMehTyr = CN[C@@H](CCc1ccc(O)cc1)C(=O)O; Nle(6-Ph) = N[C@@H](CCCCc1ccccc1)C(=O)O; d(aIle) = CC[C@H](C)[C@@H](N)C(=O)O; hTyr = N[C@@H](CCc1ccc(O)cc1)C(=O)O; hhPhe = N[C@@H](CCCc1ccccc1)C(=O)O; aIle = CC[C@@H](C)[C@H](N)C(=O)O; hPhe = N[C@@H](CCc1ccccc1)C(=O)O; Ile(3ξ) = CCC(C)[C@H](N)C(=O)O; NMeN = CN[C@@H](CC(N)=O)C(=O)O; NMeS = CN[C@@H](CO)C(=O)O; NMeA = CN[C@@H](C)C(=O)O; CO = O=C([*:1])[*:2]; Sar = CNCC(=O)O

Legend:
TAFIa = target: T1, TAFIa (Homo sapiens, UniProt Q96IY4); assay: biochemical
T1 construct: purchased American Diagnostica Pr; No. 874
T1 sequence (Q96IY4 115-423): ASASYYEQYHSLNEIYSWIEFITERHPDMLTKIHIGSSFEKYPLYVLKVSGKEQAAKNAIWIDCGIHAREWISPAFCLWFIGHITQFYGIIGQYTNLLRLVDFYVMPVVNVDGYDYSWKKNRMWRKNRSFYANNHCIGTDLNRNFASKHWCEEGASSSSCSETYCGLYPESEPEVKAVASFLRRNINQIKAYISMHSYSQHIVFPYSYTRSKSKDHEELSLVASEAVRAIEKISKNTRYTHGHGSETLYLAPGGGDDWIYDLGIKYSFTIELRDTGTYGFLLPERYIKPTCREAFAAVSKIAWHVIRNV

carboxypeptidase A = details: cited from earlier work; for inhibitory concentrations carboxypeptidase A: in words
FXa = FXa (Homo sapiens, UniProt P00742); assay: Protease/carboxypeptidase panel: FXa; format: biochemical
FXa, sequence (P00742 235-488 limits assumed): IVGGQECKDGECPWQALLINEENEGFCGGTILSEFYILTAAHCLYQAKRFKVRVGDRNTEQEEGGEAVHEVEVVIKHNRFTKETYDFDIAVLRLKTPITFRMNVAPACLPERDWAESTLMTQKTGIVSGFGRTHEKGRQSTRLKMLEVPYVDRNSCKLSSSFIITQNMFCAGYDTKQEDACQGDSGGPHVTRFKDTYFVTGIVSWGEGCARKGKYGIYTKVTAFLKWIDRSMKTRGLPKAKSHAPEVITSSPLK
FXa, sequence (P00742 41-179 partner limits assumed): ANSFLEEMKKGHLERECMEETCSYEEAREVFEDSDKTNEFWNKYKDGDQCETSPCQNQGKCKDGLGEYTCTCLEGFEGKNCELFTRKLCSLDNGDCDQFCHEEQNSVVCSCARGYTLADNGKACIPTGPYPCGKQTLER
From the text: Supplement srep32958-s1.docx, table 1: Table S1: Activities of Anabaenopeptins against a panel of proteases/carboxypeptidases. | column: FXa

CPA = target: T2, CPA (Homo sapiens, UniProt P15085); assay: Protease/carboxypeptidase panel: CPA; format: biochemical
T2 sequence (P15085 111-419): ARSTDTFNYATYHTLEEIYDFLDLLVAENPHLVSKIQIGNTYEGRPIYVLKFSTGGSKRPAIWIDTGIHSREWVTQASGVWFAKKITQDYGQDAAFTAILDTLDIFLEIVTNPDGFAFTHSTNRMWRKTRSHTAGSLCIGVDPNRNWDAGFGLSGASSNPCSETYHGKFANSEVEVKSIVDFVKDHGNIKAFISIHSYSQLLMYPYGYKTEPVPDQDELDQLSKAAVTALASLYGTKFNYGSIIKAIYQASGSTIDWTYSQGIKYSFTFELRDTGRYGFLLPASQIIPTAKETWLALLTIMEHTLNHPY
From the text: Supplement srep32958-s1.docx, table 1: Table S1: Activities of Anabaenopeptins against a panel of proteases/carboxypeptidases. | column: CPA

CPN = target: T3, CPN (Homo sapiens, UniProt P15169); assay: Protease/carboxypeptidase panel: CPN; format: biochemical; details: read-out: IC50 CPN
T3 sequence (P15169 21-458): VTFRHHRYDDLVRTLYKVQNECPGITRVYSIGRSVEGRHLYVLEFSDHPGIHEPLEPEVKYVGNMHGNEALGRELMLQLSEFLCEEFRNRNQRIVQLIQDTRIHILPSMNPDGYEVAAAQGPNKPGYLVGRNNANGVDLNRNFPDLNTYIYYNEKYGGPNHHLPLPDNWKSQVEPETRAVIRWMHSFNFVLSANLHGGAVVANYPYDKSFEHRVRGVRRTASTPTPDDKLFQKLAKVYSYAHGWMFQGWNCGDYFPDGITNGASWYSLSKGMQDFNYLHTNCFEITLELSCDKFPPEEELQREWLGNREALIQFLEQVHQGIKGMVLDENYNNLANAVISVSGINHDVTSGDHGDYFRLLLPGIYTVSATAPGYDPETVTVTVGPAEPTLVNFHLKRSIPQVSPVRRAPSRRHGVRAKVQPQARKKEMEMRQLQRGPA
T3 sequence (P22792 22-545 partner): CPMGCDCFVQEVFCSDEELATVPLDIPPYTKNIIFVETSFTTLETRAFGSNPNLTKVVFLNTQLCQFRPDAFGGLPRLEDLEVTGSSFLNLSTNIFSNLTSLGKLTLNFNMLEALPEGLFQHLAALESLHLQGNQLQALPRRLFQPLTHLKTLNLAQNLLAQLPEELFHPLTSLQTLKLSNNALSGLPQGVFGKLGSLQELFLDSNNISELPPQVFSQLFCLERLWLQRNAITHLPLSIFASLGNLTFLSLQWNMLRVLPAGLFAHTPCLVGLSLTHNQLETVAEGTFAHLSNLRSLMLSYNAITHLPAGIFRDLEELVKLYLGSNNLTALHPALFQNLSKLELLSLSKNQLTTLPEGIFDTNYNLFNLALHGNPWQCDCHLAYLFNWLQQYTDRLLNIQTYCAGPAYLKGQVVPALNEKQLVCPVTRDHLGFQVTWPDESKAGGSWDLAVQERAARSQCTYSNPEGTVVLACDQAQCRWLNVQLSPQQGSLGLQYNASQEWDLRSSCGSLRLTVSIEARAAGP
From the text: Supplement srep32958-s1.docx, table 1: Table S1: Activities of Anabaenopeptins against a panel of proteases/carboxypeptidases. | column: CPN

FIIa = FIIa (Homo sapiens, UniProt P00734); assay: Protease/carboxypeptidase panel: FIIa; format: biochemical; details: read-out: Ki FIIa
From the text: Supplement srep32958-s1.docx, table 1: Table S1: Activities of Anabaenopeptins against a panel of proteases/carboxypeptidases. | column: FIIa

[1] = enzymatic inhibition assay, duplicate determination, read-out: IC50 in nM against TAFIa

Compound	IC50 (TAFIa; [1])	also measured
CC[C@H](C)[C@@H]1NC(=O)[C@H](CCc2ccc(O)cc2)N(C)C(=O)[C@H](CCc2ccc(O)cc2)NC(=O)[C@H](C(C)C)NC(=O)[C@H](NC(=O)N[C@@H](Cc2ccc(O)cc2)C(=O)O)CCCCNC1=O [Compound 15, Anabaenopeptine 915] ({Tyr-CO}-[dK]V[hTyr][NMehTyr]I; lactam 1-C)	–	IC50 (TAFIa): 530 nM
CC[C@@H](C)C1NC(=O)[C@H](NC(=O)N[C@@H](Cc2ccccc2)C(=O)O)CCCCNC(=O)[C@H](CCc2ccc(O)c(Cl)c2)NC(=O)CN(C)C(=O)[C@H](CCc2ccc(O)cc2)NC1=O (stereo partly drawn) [Compound 11, Anabaenopeptin SA11]	15000 nM	–
CC[C@@H](C)C1NC(=O)[C@H](NC(=O)N[C@@H](Cc2ccccc2)C(=O)O)CCCCNC(=O)[C@H](CCc2ccccc2)NC(=O)CN(C)C(=O)[C@H](CCc2ccc(O)c(Cl)c2)NC1=O (stereo partly drawn) [Compound 9, Anabaenopeptin SA9]	31000 nM	–
CC[C@H](C)[C@@H]1NC(=O)[C@H](NC(=O)N[C@@H](Cc2ccc(O)cc2)C(=O)O)CCCCNC(=O)[C@H]([C@@H](C)CC)NC(=O)[C@H](CCc2ccc(O)cc2)N(C)C(=O)[C@H](CCc2ccc(O)cc2)NC1=O [anabaenopeptin G] ({Tyr-CO}-[dK]I[hTyr][NMehTyr]I; lactam 1-C)	–	inhibitory concentrations carboxypeptidase A (carboxypeptidase A): nanomolar
Anabaenopeptin SA1 [Compound 5]	2.2 nM	–
CC[C@@H](C)[C@H](NC(=O)N[C@@H]1CCCCNC(=O)[C@H](Cc2ccccc2)NC(=O)[C@H](CC(N)=O)N(C)C(=O)[C@H](CCCCc2ccccc2)NC(=O)[C@@H]([C@@H](C)CC)NC1=O)C(=O)O [Compound 8, Anabaenopeptin SA8] ({aIle-CO}-[dK][d(aIle)][Nle(6-Ph)][NMeN]F; lactam 1-C)	4800 nM	–
CC(C)[C@H]1NC(=O)[C@H](NC(=O)N[C@@H](Cc2ccc(O)cc2)C(=O)O)CCCCNC(=O)[C@H](Cc2ccccc2)NC(=O)[C@H](CO)N(C)C(=O)[C@H](CCc2ccc(O)cc2)NC1=O [Compound 20, Anabaenopeptin SA13] ({Tyr-CO}-[dK][dV][hTyr][NMeS]F; lactam 1-C)	2500 nM	–
Anabaenopeptin SA7 [Compound 7]	13000 nM	–
Anabaenopeptin SA12 [Compound 12]	4300 nM	–
CC(C)[C@H]1NC(=O)[C@H](NC(=O)N[C@@H](CCCN=C(N)N)C(=O)O)CCCCNC(=O)[C@H](Cc2ccccc2)NC(=O)[C@H](CO)N(C)C(=O)[C@H](CCc2ccc(O)cc2)NC1=O [Compound 19, Anabaenopeptin SA2] ({Arg-CO}-[dK][dV][hTyr][NMeS]F; lactam 1-C)	16 nM	–
CC(C)[C@H]1NC(=O)[C@H](NC(=O)N[C@@H](Cc2ccccc2)C(=O)O)CCCCNC(=O)[C@H](CCc2ccc(O)c(Cl)c2)NC(=O)CN(C)C(=O)[C@H](CCc2ccc(O)cc2)NC1=O [Compound 10, Anabaenopeptin SA10] ({Phe-CO}-[dK][dV][hTyr][Sar][X1]; lactam 1-C)	7000 nM	–
CC[C@H](C)[C@@H]1NC(=O)[C@H](NC(=O)N[C@@H](CCCNC(=N)N)C(=O)O)CCCCNC(=O)[C@H](Cc2ccccc2)NC(=O)[C@H](C)N(C)C(=O)[C@H](CCc2ccc(O)cc2)NC1=O [Compound 3, Anabaenopeptin F] ({Arg-CO}-[dK]I[hTyr][NMeA]F; lactam 1-C)	–	Ki (FXa): 38 µM; IC50 (CPA): 1.1 µM; IC50 (CPN): 2.7 µM; Ki (FIIa): 0.35 µM
CC[C@H](C)[C@H](NC(=O)N[C@@H]1CCCCNC(=O)[C@H](CC(C)C)NC(=O)[C@H](C)N(C)C(=O)[C@H](CCc2ccc(O)cc2)NC(=O)[C@H](C(C)C)NC1=O)C(=O)O [anabaenopeptin I] ({Ile-CO}-[dK]V[hTyr][NMeA]L; lactam 1-C)	–	inhibitory concentrations carboxypeptidase A (carboxypeptidase A): nanomolar
CCC(C)[C@@H]1NC(=O)[C@H](NC(=O)N[C@@H](CCCCN)C(=O)O)CCCCNC(=O)[C@H](Cc2ccccc2)NC(=O)[C@H](CC(N)=O)N(C)C(=O)[C@H](CCCc2ccccc2)NC1=O (stereo partly drawn) [Compound 4, Anabaenopeptin SA4] ({Lys-CO}-[dK][Ile(3ξ)][hhPhe][NMeN]F; lactam 1-C)	–	IC50 (TAFIa): 3.4 nM
CC[C@H](C)[C@H](NC(=O)N[C@@H]1CCCCNC(=O)[C@H](Cc2ccccc2)NC(=O)[C@H](C)N(C)C(=O)[C@H](CCc2ccc(O)cc2)NC(=O)[C@H](C(C)C)NC1=O)C(=O)O [anabaenopeptin J] ({Ile-CO}-[dK]V[hTyr][NMeA]F; lactam 1-C)	–	inhibitory concentrations carboxypeptidase A (carboxypeptidase A): nanomolar
CC[C@H](C)[C@@H]1NC(=O)[C@H](CCc2ccc(O)cc2)N(C)C(=O)[C@H](CCc2ccc(O)cc2)NC(=O)[C@H](C(C)C)NC(=O)[C@H](NC(=O)N[C@@H](CCCNC(=N)N)C(=O)O)CCCCNC1=O [Compound 16, Anabaenopeptin 908] ({Arg-CO}-[dK]V[hTyr][NMehTyr]I; lactam 1-C)	–	IC50 (TAFIa): 1.8 nM
CC[C@H](C)[C@@H]1NC(=O)[C@H](NC(=O)N[C@@H](CCCNC(=N)N)C(=O)O)CCCCNC(=O)[C@H]([C@@H](C)CC)NC(=O)[C@H](CCc2ccc(O)cc2)N(C)C(=O)[C@H](CCc2ccc(O)cc2)NC1=O [anabaenopeptin H] ({Arg-CO}-[dK]I[hTyr][NMehTyr]I; lactam 1-C)	–	IC50 carboxypeptidase A (carboxypeptidase A): 3.4 µg/mL (≈ 3.68 µM)
CC[C@@H](C)[C@H](NC(=O)N[C@@H]1CCCCNC(=O)[C@H](Cc2ccccc2)NC(=O)[C@H](CC(N)=O)N(C)C(=O)[C@H](CCc2ccccc2)NC(=O)[C@H]([C@H](C)CC)NC1=O)C(=O)O [Compound 18, Anabaenopeptin SA6] ({aIle-CO}-[dK][aIle][hPhe][NMeN]F; lactam 1-C)	51000 nM	–
Anabaenopeptin SA5 [Compound 6]	790 nM	–
CC[C@H](C)[C@H]1NC(=O)[C@H](NC(=O)N[C@@H](CCCCN)C(=O)O)CCCCNC(=O)[C@H](Cc2ccccc2)NC(=O)[C@H](C)N(C)C(=O)[C@H](CCc2ccc(O)cc2)NC1=O [Compound 17, Anabaenopeptin SA3] ({Lys-CO}-[dK][d(aIle)][hTyr][NMeA]F; lactam 1-C)	2.1 nM	–
CC(C)[C@@H]1NC(=O)[C@H](NC(=O)N[C@@H](Cc2ccc(O)cc2)C(=O)O)CCCCNC(=O)[C@H](Cc2ccccc2)NC(=O)[C@H](C)N(C)C(=O)[C@H](CCc2ccc(O)cc2)NC1=O [Compound 13, Anabaenopeptin A] ({Tyr-CO}-[dK]V[hTyr][NMeA]F; lactam 1-C)	440 nM	–
